Source: patent publication US8927500B2, “Peptidomimetic macrocycles” (Aileron Therapeutics, Inc., priority 2012, dated 2015)
Where two headings read alike, the source gives them in different places.

Experiments:
MDM2 = MDM2 (Homo sapiens, UniProt Q00987); test: Competitive fluorescence polarization assay for MDM2; type: binding; conditions: competitive FP assay, MDM2
MDMX = biological target: T1, MDMX (Homo sapiens, UniProt O15151); test: Competitive fluorescence polarization assay for MDMX; type: binding; conditions: competitive FP assay
T1 sequence (O15151 1-125): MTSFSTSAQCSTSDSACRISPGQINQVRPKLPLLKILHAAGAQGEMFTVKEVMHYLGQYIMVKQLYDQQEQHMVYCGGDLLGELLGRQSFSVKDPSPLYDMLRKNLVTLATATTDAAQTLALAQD
Protocol: Dilute MDMX (In-house, 40 kD) into FP buffer (High salt buffer-200 mM Nacl, 5 mM CHAPS, pH 7.5.) to make 300 nM (2×) working stock solution. • 2. […] Dilute 1 mM (in 100% DMSO) of FAM labeled linear peptide with DMSO to 100 μM (dilution 1:10). Then, dilute from 100 μM to 10 μM with water (dilution 1:10) and then dilute with FP buffer from 10 μM to 40 nM (dilution 1:250). This is the working solution which will be a 10 nM concentration in well (dilution 1:4). Keep the diluted FAM labeled peptide in the dark until use. • 4. […] Dilute 10 mM (in 100% DMSO) with DMSO to 5 mM (dilution 1:2). Then, dilute from 5 mM to 500 μM with H2O (dilution 1:10) and then dilute with FP buffer from 500 μM to 20 μM (dilution 1:25). […] Transfer 10 μl of serial diluted unlabeled peptides to each well which is filled with 20 μl of 300 nM of protein. • 7. Add 10 μl of 10 nM (4×) of FAM labeled peptide into each well and incubate for 3 hr to read.

Caspase 3 = Caspase 3 detection assay in SJSA1 cells; type: cell-based; conditions: 48 h, Caspase 3 activation over DMSO-treated cells; for caspase 0.3 uM: 0.3 uM peptide; for caspase 3 uM: 3 uM peptide; for caspase 10 uM: 10 uM peptide; for caspase 30 uM: 30 uM peptide; for caspase 1 uM: 1 uM peptide
SJSA-1 cells = test: Cell lysis by peptidomimetic macrocycles (LDH release); type: cell-based; conditions: 1 h at 37C

MDM2, sequence (Q00987 1-125): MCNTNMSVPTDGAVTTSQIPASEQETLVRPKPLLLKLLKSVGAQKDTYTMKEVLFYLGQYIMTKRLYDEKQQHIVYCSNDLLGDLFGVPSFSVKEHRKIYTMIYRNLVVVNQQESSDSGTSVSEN

Row | Structure (SMILES) | IC50 (MDM2; read-out: IC50 (MDM2)) [nM] | Ki (MDM2; read-out: Ki (MDM2)) [nM] | IC50 (MDMX; read-out: IC50 (MDMX)) [nM] | Ki (MDMX; read-out: Ki (MDMX)) [nM] | caspase 0.3 uM (Caspase 3) | caspase 3 uM (Caspase 3) | caspase 10 uM (Caspase 3) | caspase 30 uM (Caspase 3) | 6.25 uM % Lysed cells (1 h LDH) (SJSA-1 cells) [%] | 25 uM % Lysed cells (1 h LDH) (SJSA-1 cells) [%] | 50 uM % Lysed cells (1 h LDH) (SJSA-1 cells) [%] | IC50 (MDM2; IC50 (MDM2)) [nM] | Ki (MDM2; Ki (MDM2)) [nM] | IC50 (MDMX; IC50 (MDMX)) [nM] | Ki (MDMX; Ki (MDMX)) [nM] | caspase 1 uM (Caspase 3)
1 | CC[C@H](C)[C@H](NC(=O)[C@H](C)NC(=O)[C@H](C)NC(=O)[C@]1(C)CCCC=CCCCCCC[C@@](C)(NC(=O)[C@H](Cc2ccccc2)NC(=O)[C@@H](NC(=O)[C@H](CC(C)C)NC(C)=O)[C@@H](C)O)C(=O)N[C@@H](C)C(=O)N[C@@H](Cc2ccc(O)cc2)C(=O)N[C@@H](Cc2c[nH]c3ccccc23)C(=O)N[C@@H](C)C(=O)N[C@@H](C)C(=O)N[C@@H](CC(C)C)C(=O)N1)C(=O)N[C@H](C)C(N)=O (single isomer, unassigned) [compound 203] | 10 to 100 | < 10 | 100 to 1000 | 10 to 100 | 1 | 3 | 12 | 10 | 0 | 2 | 2 | – | – | – | – | –
2 | CC(=O)N[C@@H](CC(C)C)C(=O)N[C@H](C(=O)N[C@@H](Cc1ccccc1)C(=O)N[C@]1(C)CCCCCCC=CCCC[C@@](C)(C(=O)N[C@@H](C)C(=O)N[C@@H](C)C(=O)N[C@H](C(=O)N[C@H](C)C(N)=O)C(C)C)NC(=O)[C@H](CC(C)C)NC(=O)[C@H](CCC(N)=O)NC(=O)[C@H](C)NC(=O)[C@H](Cc2c[nH]c3ccccc23)NC(=O)[C@H](Cc2ccc(O)cc2)NC(=O)[C@H](CCC(=O)O)NC1=O)[C@@H](C)O (single isomer, unassigned) [compound 221] | < 10 | < 10 | 10 to 100 | 10 to 100 | 1 | 3 | 6 | 12 | 3 | 3 | 11 | – | – | – | – | –
3 | CC(=O)N[C@@H](CCC(=O)O)C(=O)N[C@H](C(=O)N[C@@H](Cc1ccccc1)C(=O)N[C@]1(C)CCCCCCC=CCCC[C@@](C)(C(=O)N[C@@H](C)C(=O)N[C@@H](C)C(=O)N[C@@H](C)C(=O)N[C@@H](C)C(=O)N[C@@H](C)C(=O)N[C@H](C)C(N)=O)NC(=O)[C@H](CC(C)C)NC(=O)[C@H](CCC(N)=O)NC(=O)[C@H](C)NC(=O)[C@H](Cc2c[nH]c3ccccc23)NC(=O)[C@H](Cc2ccc(O)cc2)NC(=O)[C@H](CCC(=O)O)NC1=O)[C@@H](C)O (single isomer, unassigned) [compound 341] | – | – | – | – | 3 | 11 | 14 | 21 | 0 | 0 | 0 | 10 to 100 | < 10 | 10 to 100 | < 10 | 8
4 | CC(=O)N[C@@H](CC(C)C)C(=O)N[C@H](C(=O)N[C@@H](Cc1ccccc1)C(=O)N[C@]1(C)CCCCCCC=CCCC[C@@](C)(C(=O)N[C@@H](C)C(=O)N[C@@H](C)C(=O)N[C@@H](C)C(=O)N[C@@H](C)C(=O)N[C@@H](C)C(=O)N[C@@H](C)C(=O)N[C@H](C)C(N)=O)NC(=O)[C@H](CC(C)C)NC(=O)[C@H](CCC(N)=O)NC(=O)[C@H](C)NC(=O)[C@H](Cc2c[nH]c3ccccc23)NC(=O)[C@H](Cc2ccc(O)cc2)NC(=O)[C@H](CCC(=O)O)NC1=O)[C@@H](C)O (single isomer, unassigned) [compound 343] | – | – | – | – | 1 | 2 | 5 | 29 | 0 | 0 | 0 | 10 to 100 | < 10 | 10 to 100 | < 10 | 1
5 | CC(=O)N[C@@H](CC(C)C)C(=O)N[C@H](C(=O)N[C@@H](Cc1ccccc1)C(=O)N[C@]1(C)CCCCCCC=CCCC[C@@](C)(C(=O)N[C@@H](C)C(=O)N[C@@H](C)C(=O)N[C@@H](C)C(=O)N[C@@H](C)C(=O)N[C@@H](C)C(=O)N[C@H](C)C(N)=O)NC(=O)[C@H](CC2CCC2)NC(=O)[C@H](CCC(N)=O)NC(=O)[C@H](C)NC(=O)[C@H](Cc2c[nH]c3ccccc23)NC(=O)[C@H](Cc2ccc(O)cc2)NC(=O)[C@H](CCC(=O)O)NC1=O)[C@@H](C)O (single isomer, unassigned) [compound 347] | 10 to 100 | < 10 | 10 to 100 | 10 to 100 | 2 | 5 | 8 | 29 | 0 | 0 | 0 | – | – | – | – | 3

Now from value to compound, other results behind:

Row | IC50 (MDM2; read-out: IC50 (MDM2)) [nM] | Ki (MDM2; read-out: Ki (MDM2)) [nM] | IC50 (MDMX; read-out: IC50 (MDMX)) [nM] | Ki (MDMX; read-out: Ki (MDMX)) [nM] | Structure (SMILES) | caspase 0.3 uM (Caspase 3) | caspase 3 uM (Caspase 3) | caspase 10 uM (Caspase 3) | caspase 30 uM (Caspase 3) | 6.25 uM % Lysed cells (1 h LDH) (SJSA-1 cells) [%] | 25 uM % Lysed cells (1 h LDH) (SJSA-1 cells) [%] | 50 uM % Lysed cells (1 h LDH) (SJSA-1 cells) [%] | IC50 (MDM2; IC50 (MDM2)) [nM] | Ki (MDM2; Ki (MDM2)) [nM] | IC50 (MDMX; IC50 (MDMX)) [nM] | Ki (MDMX; Ki (MDMX)) [nM] | caspase 1 uM (Caspase 3)
6 | < 10 | < 10 | 100 to 1000 | 10 to 100 | CC(=O)N[C@@H](CC(C)C)C(=O)N[C@H](C(=O)N[C@@H](Cc1ccccc1)C(=O)N[C@]1(C)CCCCCCC=CCCC[C@@](C)(C(=O)N[C@@H](CO)C(=O)N[C@@H](C)C(=O)N[C@@H](CO)C(N)=O)NC(=O)[C@H](CC(C)C)NC(=O)[C@H](CCC(N)=O)NC(=O)[C@H](C)NC(=O)[C@H](Cc2c[nH]c3ccccc23)NC(=O)[C@H](Cc2ccc(O)cc2)NC(=O)[C@H](C(C)C)NC1=O)[C@@H](C)O (single isomer, unassigned) [compound 144] | 1 | 4 | 10 | 16 | 1 | −1 | 2 | – | – | – | – | –
7 | < 10 | < 10 | 100 to 1000 | 10 to 100 | CC(=O)N[C@@H](CC(C)C)C(=O)N[C@H](C(=O)N[C@@H](Cc1ccc(F)c(F)c1)C(=O)N[C@]1(C)CCCCCCC=CCCC[C@@](C)(C(=O)N[C@@H](CO)C(=O)N[C@@H](C)C(=O)N[C@@H](C)C(N)=O)NC(=O)[C@H](CC(C)C)NC(=O)[C@H](CCC(N)=O)NC(=O)[C@H](C)NC(=O)[C@H](Cc2c[nH]c3ccccc23)NC(=O)[C@H](Cc2ccc(O)cc2)NC(=O)[C@H](CCC(=O)O)NC1=O)[C@@H](C)O (single isomer, unassigned) [compound 158] | 1 | – | 5 | 16.33 | 0 | −2 | – | – | – | – | – | –
8 | < 10 | < 10 | 100 to 1000 | 10 to 100 | CC[C@H](C)[C@H](NC(=O)[C@H](C)NC(=O)[C@H](C)NC(=O)[C@]1(C)CCCC=CCCCCCC[C@@](C)(NC(=O)[C@H](Cc2ccccc2)NC(=O)[C@@H](NC(=O)[C@H](CCC(=O)O)NC(C)=O)[C@@H](C)O)C(=O)N[C@@H](CCC(=O)O)C(=O)N[C@@H](Cc2c[nH]cn2)C(=O)N[C@@H](Cc2c[nH]c3ccccc23)C(=O)N[C@@H](C)C(=O)N[C@@H](CCC(N)=O)C(=O)N[C@@H](CC(C)C)C(=O)N1)C(=O)N[C@H](C)C(N)=O (single isomer, unassigned) [compound 175] | 1 | 5 | 12 | 21 | 3 | 1 | 0 | – | – | – | – | –
9 | < 10 | < 10 | 100 to 1000 | 10 to 100 | CC(=O)N[C@@H](CC(C)C)C(=O)N[C@H](C(=O)N[C@@H](Cc1ccccc1)C(=O)N[C@]1(C)CCCCCCC=CCCC[C@@](C)(C(=O)N[C@@H](C)C(=O)N[C@@H](C)C(=O)N[C@@H](Cc2ccccc2)C(=O)N[C@H](C)C(N)=O)NC(=O)[C@H](CC(C)C)NC(=O)[C@H](CCC(N)=O)NC(=O)[C@H](C)NC(=O)[C@H](Cc2c[nH]c3ccccc23)NC(=O)[C@H](Cc2ccc(O)cc2)NC(=O)[C@H](CCC(=O)O)NC1=O)[C@@H](C)O (single isomer, unassigned) [compound 218] | 1 | 2 | 8 | 18 | 0 | −4 | 1 | – | – | – | – | –
